Test system: IL-10
Assay: Measurement of human IL-10 amount in culture supernatant of MT2 cells with ELISA kit (Test 1)
Assay type: cell-based
Conditions: 48±2 hours; for activity at 10 µM / activity at 20 µM: Homo sapiens, 48 h, DMSO control = 100%, read-out: % against control (IL-10 production)
Procedure: MT2 cells from human adult T-cell leukemia were used. Leukemia cells of human adult T-cell leukemia (ATL) express CD4 and CD25 molecules on the cell surface and are considered to be derived from Treg (Chen S. et al., International Immunology 18:269-277 (2005)). MT2 cells were used in experiments as models of Treg since the cells are CD4 positive, CD25 positive, and FOXP3 positive celles derived from ATL.
The example compounds (compounds 1-17) of the present invention were dissolved in dimethylsulfoxide (DMSO) to prepare each 50 mmol/L solution, which was preserved at −80° C.
The amount of IL-10 production in the control and the example compounds was measured to evaluate the inhibitory effect on IL-10 production of the example compounds of the present invention.
(1) MT2 cells are suspended in RPMI1640 medium (hereinafter referred to as “the medium”) supplemented with 10% fetal calf serum (FCS) and 1% penicillin/streptomycin (P/S) to give 3×10^5 cells/mL suspension, and 1 mL of the suspension was added to each well of a 24-well plate. […] The cell cultures were incubated 48±2 hours in a CO2 incubator (under a condition of 37° C., 5 CO2). DMSO was diluted 50-fold with the medium, and 20 μL of the diluent was added to the well to make a control of compounds 1-7. In addition, DMSO was diluted 50-fold with the medium, and 25.0 μL of the diluent was added to the well to make a control of compounds 8-17.
(2) A piece of the cell culture was sampled to count cells with a cell counter (BIO RAD TC-20). The cell culture was centrifuged at 300×g for 5 minutes and the supernatant was collected as a sample for IL-10 measurement. When not measured within a day, it was preserved in a freezer at −80° C.
(3) Human IL-10 ELISA kit II (BD OptEIA) was used on the measurement. The kit contains wells treated with anti-IL-10 antibody (8 wells/strip), Standard/Sample diluent, vials comprising freeze-dried IL-10 Standard (1280 pg/vial), ELISA diluent, 20× Wash Buffer, Detection antibody, Enzyme Concentrate, TMB One Step Substrate Reagent, Stop Solution, and cover sheets.
(4) To a vial containing IL-10 Standard was added […] Standard/Sample diluent, and the vial was stood at room temperature for 15 minutes to be dissolved (Standard sample stock solution 1L-10 concentration: 500 pg/mL).
(5) Standard samples in each concentration for making a standard curve were prepared as follows. Firstly, to 300 μL of the medium was added 300 μL of the standard sample stock solution, and the mixture was mixed with a Voltex mixer (250 pg/mL). Next, 300 μL of the standard sample of 250 pg/mL was added to 300 μL of the medium and the mixture was mixed with a Voltex mixer (125 pg/mL). The same procedures were successively repeated to prepare standard solutions of 62.5, 31.25, 15.625, and 7.8125 pg/mL. As 0 pg/mL standard solution, the medium was used.
(6) A kit containing wells treated with anti-IL-10 antibody (8 wells/strip) was warmed to room temperature and 50 μL of ELISA diluent in the kit was added into each well.
(7) To each well containing ELISA diluent, 100 μL of the standard samples of each concentration and each test sample (diluded 50-100 fold with medium) were added.
(8) After the wells were sealed with a cover sheet and gently tapped, they were left at room temperature for 2 hours.
(9) 20× Wash Buffer was diluted 20-fold with water to prepare 1× Wash Buffer.
(10) After the reaction was done for 2 hours, the solutions in each well were aspirated and washed 5 times with 300 μL of 1× Wash Buffer.
(11) After Enzyme Concentrate (4 μL per 8 wells) was added to Detection antibody (1 ml per 8 wells), the solution was mixed by a Vortex mixer and then a necessary amount of Working Detector was prepared.
(12) 100 μL of Working Detector was added to each well, covered with a cover sheet, and the wells were left at room temperature for an hour.
(13) After the reaction was done for an hour, the solutions in wells were aspirated and washed 7 times with 300 μL of 1× Wash Buffer. […]

Q: With `COC(=O)C1=CN2CCc3c([nH]c4ccccc34)[C@@H]2[C@@]2(O)C(CO)=CC[C@H]12` [Compound 5] as the compound, how does the “IL-10 (ng/10^6 cells) ± standard deviate (n = 3)” value (10 μmol/L) read?
A: The value was 19.7 ± 0.2 ng/10^6 cells.

Q: And the “IL-10 (ng/10^6 cells) ± standard deviate (n = 3)” value (20 μmol/L)?
A: The value was 14.9 ± 0.4 ng/10^6 cells.

Q: And the activity at 10 µM (10 μmol/L)?
A: Its activity at 10 µM is 106%.

Q: What about the activity at 20 µM (20 μmol/L) of the same compound?
A: The activity at 20 µM was 80.5%.

Q: Which results are given for `COC(=O)C1=CN(CCc2c[nH]c3ccccc23)C=C2[C@@H]1CC(OC)O[C@H]2C` (stereo partly shown) [Compound 3]?
A: IL-10 (ng/10^6 cells) ± standard deviate (n = 3) (10 μmol/L): 14.8 ± 0.3 ng/10^6 cells; IL-10 (ng/10^6 cells) ± standard deviate (n = 3) (20 μmol/L): 11.8 ± 0.3 ng/10^6 cells; activity at 10 µM (10 μmol/L): 80%; activity at 20 µM (20 μmol/L): 63.7%

Q: What does the source list for `CC1C(C=O)=C2CCOC(=O)C2=CN1CCc1c[nH]c2ccccc12` (stereo not shown) [Compound 7]?
A: IL-10 (ng/10^6 cells) ± standard deviate (n = 3) (10 μmol/L): 17.9 ± 0.6 ng/10^6 cells; IL-10 (ng/10^6 cells) ± standard deviate (n = 3) (20 μmol/L): 15.4 ± 0.4 ng/10^6 cells; activity at 10 µM (10 μmol/L): 96.5%; activity at 20 µM (20 μmol/L): 83.1%

Q: What does the source list for `COC(=O)C1=CN(CCc2c[nH]c3ccccc23)C(O)[C@H]2[C@@H]1C=CC2(O)CO` (stereo partly shown) [Compound 6]?
A: IL-10 (ng/10^6 cells) ± standard deviate (n = 3) (10 μmol/L): 17.6 ± 0.7 ng/10^6 cells; IL-10 (ng/10^6 cells) ± standard deviate (n = 3) (20 μmol/L): 15.2 ± 0.4 ng/10^6 cells; activity at 10 µM (10 μmol/L): 95.2%; activity at 20 µM (20 μmol/L): 81.8%
